Where a name gives a salt, the structure may show the parent alone.
Columns and labels:
Assay in all cases: cells
Format in all cases: functional, cell-based, Homo sapiens
IST-MEL1 = test system: IST-MEL1;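 also: growth inhibition of the cell line, read out with a cell viability assay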
Description: SANGER: Inhibition of human IST-MEL1 cell growth in a cell viability assay.

MS-1 = test system: MS-1;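 also: growth inhibition of MS-1 cells, read out by cell viability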
Description: SANGER: Inhibition of human MS-1 cell growth in a cell viability assay.

KM-H2 = test system: KM-H2;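 also: growth inhibition of KM-H2 cells, read out by a cell viability assay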
Description: SANGER: Inhibition of human KM-H2 cell growth in a cell viability assay.

NB10 = test system: NB10;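 also: growth inhibition of NB10 cells, read out by a cell viability assay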
Description: SANGER: Inhibition of human NB10 cell growth in a cell viability assay.

COLO-829 = test system: COLO-829
Description: SANGER: Inhibition of human COLO-829 cell growth in a cell viability assay.

NCI-H1650 = test system: NCI-H1650;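 also: growth inhibition of human NCI-H1650 cells measured by a cell viability assay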
Description: SANGER: Inhibition of human NCI-H1650 cell growth in a cell viability assay.

EW-24 = test system: EW-24;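 also: human EW-24 cancer cell line, growth inhibition read out via a cell viability assay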
Description: SANGER: Inhibition of human EW-24 cell growth in a cell viability assay.

HCE-4 = test system: HCE-4;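 also: cell viability assay measuring inhibition of growth in the human HCE-4 cell line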
Description: SANGER: Inhibition of human HCE-4 cell growth in a cell viability assay.

NOS-1 = test system: NOS-1;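 also: growth inhibition of the human NOS-1 cell line, read out with a cell viability assay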
Description: SANGER: Inhibition of human NOS-1 cell growth in a cell viability assay.

COLO-668 = test system: COLO-668
Description: SANGER: Inhibition of human COLO-668 cell growth in a cell viability assay.

KURAMOCHI = test system: KURAMOCHI;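 also: growth inhibition of KURAMOCHI cells, read out with a cell viability assay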
Description: SANGER: Inhibition of human KURAMOCHI cell growth in a cell viability assay.

BB30-HNC = test system: BB30-HNC;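 also: growth inhibition of the cultured cell line, read out by a cell viability assay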
Description: SANGER: Inhibition of human BB30-HNC cell growth in a cell viability assay.

RXF 393 = test system: RXF 393;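 also: growth inhibition of human RXF 393 cells, read out with a cell viability assay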
Description: SANGER: Inhibition of human RXF393 cell growth in a cell viability assay.

LS-513 = test system: LS-513
Description: SANGER: Inhibition of human LS-513 cell growth in a cell viability assay.

HCC2157 = test system: HCC2157;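 also: growth inhibition of the cancer cell line, read out as cell viability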
Description: SANGER: Inhibition of human HCC2157 cell growth in a cell viability assay.

Mo = test system: Mo
Description: SANGER: Inhibition of human Mo-T cell growth in a cell viability assay.

RS4-11 = test system: RS4-11;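 also: growth inhibition of RS4-11 cells, read out by a cell viability assay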
Description: SANGER: Inhibition of human RS4-11 cell growth in a cell viability assay.

NOMO-1 = test system: NOMO-1;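 also: growth inhibition of human NOMO-1 cells measured by a cell viability assay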
Description: SANGER: Inhibition of human NOMO-1 cell growth in a cell viability assay.

BB49-HNC = test system: BB49-HNC;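 also: cell viability assay read-out, reported as inhibition of BB49-HNC cell growth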
Description: SANGER: Inhibition of human BB49-HNC cell growth in a cell viability assay.

QIMR-WIL = test system: QIMR-WIL;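 also: growth inhibition of QIMR-WIL cells, read out with a cell viability assay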
Description: SANGER: Inhibition of human QIMR-WIL cell growth in a cell viability assay.

OCUB-M = test system: OCUB-M;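 also: growth inhibition of the cancer cell line, read out through a cell viability assay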
Description: SANGER: Inhibition of human OCUB-M cell growth in a cell viability assay.

ES6 = test system: ES6;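 also: growth inhibition of human ES6 cells, read out with a cell viability assay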
Description: SANGER: Inhibition of human ES6 cell growth in a cell viability assay.

RPMI-8866 = test system: RPMI-8866
Description: SANGER: Inhibition of human RPMI-8866 cell growth in a cell viability assay.

JVM-2 = test system: JVM-2;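 also: growth inhibition of JVM-2 cells determined by a cell viability assay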
Description: SANGER: Inhibition of human JVM-2 cell growth in a cell viability assay.

A4-Fuk = test system: A4-Fuk;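 also: growth inhibition of A4-Fuk cells, read out by a cell viability assay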
Description: SANGER: Inhibition of human A4-Fuk cell growth in a cell viability assay.

8-MG-BA = test system: 8-MG-BA;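 also: growth inhibition of 8-MG-BA cells, read out with a cell viability assay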
Description: SANGER: Inhibition of human 8-MG-BA cell growth in a cell viability assay.

DSH1 = test system: DSH1;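 also: growth inhibition of human DSH1 cells, measured with a cell viability readout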
Description: SANGER: Inhibition of human DSH1 cell growth in a cell viability assay.

KG-1 = test system: KG-1;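 also: growth inhibition of KG-1 cells, read out by a cell viability assay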
Description: SANGER: Inhibition of human KG-1 cell growth in a cell viability assay.

KARPAS-45 = test system: KARPAS-45;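 also: inhibition of cell line growth, read out through a viability assay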
Description: SANGER: Inhibition of human KARPAS-45 cell growth in a cell viability assay.

LU-134-A = test system: LU-134-A
Description: SANGER: Inhibition of human LU-134-A cell growth in a cell viability assay.

SK-MEL-1 = test system: SK-MEL-1;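 also: growth inhibition of human SK-MEL-1 cells, read out by a cell viability assay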
Description: SANGER: Inhibition of human SK-MEL-1 cell growth in a cell viability assay.

SF-539 = test system: SF-539;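 also: Read-out is a cell viability assay, with IC50 reflecting inhibition of cell growth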
Description: SANGER: Inhibition of human SF539 cell growth in a cell viability assay.

U-266 = test system: U-266
Description: SANGER: Inhibition of human U-266 cell growth in a cell viability assay.

SF-268 = test system: SF-268;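 also: growth inhibition of SF-268 cells determined with a cell viability assay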
Description: SANGER: Inhibition of human SF268 cell growth in a cell viability assay.

NCI-H1395 = test system: NCI-H1395;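 also: cell viability assay read-out quantifying reduced proliferation of human NCI-H1395 cells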
Description: SANGER: Inhibition of human NCI-H1395 cell growth in a cell viability assay.

KE-37 = test system: KE-37;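 also: growth inhibition of KE-37 cells, read out with a cell viability assay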
Description: SANGER: Inhibition of human KE-37 cell growth in a cell viability assay.

MOLT-4 = test system: MOLT-4;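 also: growth inhibition of MOLT-4 cells, determined with a cell viability readout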
Description: SANGER: Inhibition of human MOLT-4 cell growth in a cell viability assay.

NCI-H82 = test system: NCI-H82;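 also: growth inhibition of NCI-H82 cells, measured with a cell viability readout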
Description: SANGER: Inhibition of human NCI-H82 cell growth in a cell viability assay.

NCI-H1770 = test system: NCI-H1770;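 also: growth inhibition of NCI-H1770 cells determined with a viability readout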
Description: SANGER: Inhibition of human NCI-H1770 cell growth in a cell viability assay.

TGBC1TKB = test system: TGBC1TKB;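 also: growth inhibition of TGBC1TKB cells, read out by a cell viability assay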
Description: SANGER: Inhibition of human TGBC1TKB cell growth in a cell viability assay.

KNS-81-FD = test system: KNS-81-FD;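 also: growth inhibition of KNS-81-FD cells, read out with a cell viability assay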
Description: SANGER: Inhibition of human KNS-81-FD cell growth in a cell viability assay.

HCE-T = test system: HCE-T;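 also: cell viability assay read-out, reporting inhibition of HCE-T cell growth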
Description: SANGER: Inhibition of human HCE-T cell growth in a cell viability assay.

TE-6 = test system: TE-6;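 also: growth inhibition of TE-6 cells, read out with a cell viability assay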
Description: SANGER: Inhibition of human TE-6 cell growth in a cell viability assay.

LB771-HNC = test system: LB771-HNC;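 also: growth inhibition of LB771-HNC human cells, read out with a cell viability assay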
Description: SANGER: Inhibition of human LB771-HNC cell growth in a cell viability assay.

LS-1034 = test system: LS-1034
Description: SANGER: Inhibition of human LS-1034 cell growth in a cell viability assay.

ETK-1 = test system: ETK-1;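 also: growth inhibition of human ETK-1 cells, read out with a cell viability assay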
Description: SANGER: Inhibition of human ETK-1 cell growth in a cell viability assay.

EW-13 = test system: EW-13;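 also: growth inhibition of EW-13 cells, read out with a cell viability assay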
Description: SANGER: Inhibition of human EW-13 cell growth in a cell viability assay.

SCH = test system: SCH;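 also: growth inhibition of human SCH cells, read out in a cell viability assay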
Description: SANGER: Inhibition of human SCH cell growth in a cell viability assay.

CAS-1 = test system: CAS-1;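 also: growth inhibition of CAS-1 cells, measured with a cell viability assay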
Description: SANGER: Inhibition of human CAS-1 cell growth in a cell viability assay.

## COC1=CC(c2cc3ccccc3[nH]2)=N/C1=C\c1[nH]c(C)cc1C [OBATOCLAX MESYLATE]
IST-MEL1; Homo sapiens, IST-MEL1
  IC50: < 0.0625 µM
MS-1; Homo sapiens, MS-1
  IC50: 1.29 µM
KM-H2; Homo sapiens, KM-H2
  IC50: 0.701 µM
NB10; Homo sapiens, NB10
  IC50: 2.82 µM
COLO-829; Homo sapiens, COLO-829
  IC50: 0.72 µM
NCI-H1650; Homo sapiens, NCI-H1650
  IC50: 3.78 µM
EW-24; Homo sapiens, EW-24
  IC50: 0.34 µM
HCE-4; Homo sapiens, HCE-4
  IC50: 0.203 µM
NOS-1; Homo sapiens, NOS-1
  IC50: 0.0641 µM
COLO-668; Homo sapiens, COLO-668
  IC50: 1.33 µM
KURAMOCHI; Homo sapiens, KURAMOCHI
  IC50: 0.0851 µM
BB30-HNC; Homo sapiens, BB30-HNC
  IC50: < 0.0625 µM
RXF 393; Homo sapiens, RXF 393
  IC50: 1.77 µM
LS-513; Homo sapiens, LS-513
  IC50: > 16 µM
HCC2157; Homo sapiens, HCC2157
  IC50: 1.14 µM
Mo; Homo sapiens, Mo
  IC50: 1.9 µM
RS4-11; Homo sapiens, RS4-11
  IC50: 0.085 µM
NOMO-1; Homo sapiens, NOMO-1
  IC50: 0.564 µM
BB49-HNC; Homo sapiens, BB49-HNC
  IC50: 1.34 µM
QIMR-WIL; Homo sapiens, QIMR-WIL
  IC50: 0.132 µM
OCUB-M; Homo sapiens, OCUB-M
  IC50: 0.225 µM
ES6; Homo sapiens, ES6
  IC50: 0.144 µM
RPMI-8866; Homo sapiens, RPMI-8866
  IC50: 0.133 µM
JVM-2; Homo sapiens, JVM-2
  IC50: 3.94 µM
A4-Fuk; Homo sapiens, A4-Fuk
  IC50: 0.0895 µM
8-MG-BA; Homo sapiens, 8-MG-BA
  IC50: 0.078 µM
DSH1; Homo sapiens, DSH1
  IC50: 4.47 µM
KG-1; Homo sapiens, KG-1
  IC50: 0.334 µM
KARPAS-45; Homo sapiens, KARPAS-45
  IC50: < 0.0625 µM
LU-134-A; Homo sapiens, LU-134-A
  IC50: > 16 µM
SK-MEL-1; Homo sapiens, SK-MEL-1
  IC50: > 16 µM
SF-539; Homo sapiens, SF-539
  IC50: 0.116 µM
U-266; Homo sapiens, U-266
  IC50: 0.311 µM
SF-268; Homo sapiens, SF-268
  IC50: 0.0576 µM
NCI-H1395; Homo sapiens, NCI-H1395
  IC50: > 16 µM
KE-37; Homo sapiens, KE-37
  IC50: < 0.0625 µM
MOLT-4; Homo sapiens, MOLT-4
  IC50: 0.477 µM
NCI-H82; Homo sapiens, NCI-H82
  IC50: 3.34 µM
NCI-H1770; Homo sapiens, NCI-H1770
  IC50: 0.047 µM
TGBC1TKB; Homo sapiens, TGBC1TKB
  IC50: 0.62 µM
KNS-81-FD; Homo sapiens, KNS-81-FD
  IC50: 0.367 µM
HCE-T; Homo sapiens, HCE-T
  IC50: 0.125 µM
TE-6; Homo sapiens, TE-6
  IC50: 1.04 µM
LB771-HNC; Homo sapiens, LB771-HNC
  IC50: 0.103 µM
LS-1034; Homo sapiens, LS-1034
  IC50: 0.658 µM
ETK-1; Homo sapiens, ETK-1
  IC50: 0.0567 µM
EW-13; Homo sapiens, EW-13
  IC50: 0.0441 µM
SCH; Homo sapiens, SCH
  IC50: > 16 µM
CAS-1; Homo sapiens, CAS-1
  IC50: 1.09 µM

## BLEOMYCIN
IST-MEL1; ist-mel1
  IC50: 0.28 µM
MS-1; ms-1
  IC50: 156 µM
KM-H2; km-h2
  IC50: 6.97 µM
NB10; nb10
  IC50: 13.8 µM
COLO-829; colo-829
  IC50: 37 µM
NCI-H1650; nci-h1650
  IC50: 0.499 µM
EW-24; ew-24
  IC50: 95.3 µM
HCE-4; hce-4
  IC50: 0.453 µM
NOS-1; nos-1
  IC50: 1.31 µM
COLO-668; colo-668
  IC50: 2.18e-05 µM
KURAMOCHI; kuramochi
  IC50: 2.04 µM
BB30-HNC; bb30-hnc
  IC50: 0.0163 µM
RXF 393; rxf 393
  IC50: 176 µM
LS-513; ls-513
  IC50: 29 µM
HCC2157; hcc2157
  IC50: 93.4 µM
Mo; mo
  IC50: 103 µM
RS4-11; rs4-11
  IC50: 0.00164 µM
NOMO-1; nomo-1
  IC50: 4.2 µM
BB49-HNC; bb49-hnc
  IC50: 38.8 µM
QIMR-WIL; qimr-wil
  IC50: 0.637 µM
OCUB-M; ocub-m
  IC50: 1.81 µM
ES6; es6
  IC50: 0.406 µM
RPMI-8866; rpmi-8866
  IC50: 7.91 µM
JVM-2; jvm-2
  IC50: 0.572 µM
A4-Fuk; a4-fuk
  IC50: 25.3 µM
8-MG-BA; 8-mg-ba
  IC50: 1.48 µM
DSH1; dsh1
  IC50: 155 µM
KG-1; kg-1
  IC50: 0.131 µM
KARPAS-45; karpas-45
  IC50: 213 µM
LU-134-A; lu-134-a
  IC50: 41.8 µM
SK-MEL-1; sk-mel-1
  IC50: 260 µM
SF-539; sf-539
  IC50: 0.393 µM
U-266; u-266
  IC50: 282 µM
SF-268; sf-268
  IC50: 1.32 µM
NCI-H1395; nci-h1395
  IC50: 384 µM
KE-37; ke-37
  IC50: 25.9 µM
MOLT-4; molt-4
  IC50: 1.77 µM
NCI-H82; nci-h82
  IC50: 225 µM
NCI-H1770; nci-h1770
  IC50: 5.29 µM
TGBC1TKB; tgbc1tkb
  IC50: 74.1 µM
KNS-81-FD; kns-81-fd
  IC50: 664 µM
HCE-T; hce-t
  IC50: 2.83 µM
TE-6; te-6
  IC50: 12.4 µM
LB771-HNC; lb771-hnc
  IC50: 209 µM
LS-1034; ls-1034
  IC50: 35.4 µM
ETK-1; etk-1
  IC50: 0.0805 µM
EW-13; ew-13
  IC50: 0.292 µM
SCH; sch
  IC50: 444 µM
CAS-1; cas-1
  IC50: 81 µM

## Cc1cc([N+](=O)[O-])ccc1NS(=O)(=O)c1cc(Cl)ccc1Cl
IST-MEL1; Homo sapiens, IST-MEL1
  IC50: 11.2 µM
MS-1; Homo sapiens, MS-1
  IC50: 16.4 µM
KM-H2; Homo sapiens, KM-H2
  IC50: 14.9 µM
NB10; Homo sapiens, NB10
  IC50: 16.3 µM
COLO-829; Homo sapiens, COLO-829
  IC50: 0.825 µM
NCI-H1650; Homo sapiens, NCI-H1650
  IC50: 8.47 µM
EW-24; Homo sapiens, EW-24
  IC50: > 32 µM
HCE-4; Homo sapiens, HCE-4
  IC50: 5.45 µM
NOS-1; Homo sapiens, NOS-1
  IC50: 2.06 µM
COLO-668; Homo sapiens, COLO-668
  IC50: 4.48 µM
KURAMOCHI; Homo sapiens, KURAMOCHI
  IC50: 1.33 µM
BB30-HNC; Homo sapiens, BB30-HNC
  IC50: 2.61 µM
RXF 393; Homo sapiens, RXF 393
  IC50: > 32 µM
LS-513; Homo sapiens, LS-513
  IC50: 14.5 µM
HCC2157; Homo sapiens, HCC2157
  IC50: 8.76 µM
Mo; Homo sapiens, Mo
  IC50: > 32 µM
RS4-11; Homo sapiens, RS4-11
  IC50: 13.2 µM
NOMO-1; Homo sapiens, NOMO-1
  IC50: 6.21 µM
BB49-HNC; Homo sapiens, BB49-HNC
  IC50: > 32 µM
QIMR-WIL; Homo sapiens, QIMR-WIL
  IC50: 6.82 µM
OCUB-M; Homo sapiens, OCUB-M
  IC50: 0.81 µM
ES6; Homo sapiens, ES6
  IC50: 3.03 µM
RPMI-8866; Homo sapiens, RPMI-8866
  IC50: 3.32 µM
JVM-2; Homo sapiens, JVM-2
  IC50: > 32 µM
A4-Fuk; Homo sapiens, A4-Fuk
  IC50: > 32 µM
8-MG-BA; Homo sapiens, 8-MG-BA
  IC50: 3.7 µM
DSH1; Homo sapiens, DSH1
  IC50: 0.949 µM
KG-1; Homo sapiens, KG-1
  IC50: 7 µM
KARPAS-45; Homo sapiens, KARPAS-45
  IC50: 4.51 µM
LU-134-A; Homo sapiens, LU-134-A
  IC50: > 32 µM
SK-MEL-1; Homo sapiens, SK-MEL-1
  IC50: > 32 µM
SF-539; Homo sapiens, SF-539
  IC50: 21 µM
U-266; Homo sapiens, U-266
  IC50: 22.9 µM
SF-268; Homo sapiens, SF-268
  IC50: 6.02 µM
NCI-H1395; Homo sapiens, NCI-H1395
  IC50: > 32 µM
KE-37; Homo sapiens, KE-37
  IC50: > 32 µM
MOLT-4; Homo sapiens, MOLT-4
  IC50: > 32 µM
NCI-H82; Homo sapiens, NCI-H82
  IC50: 18 µM
NCI-H1770; Homo sapiens, NCI-H1770
  IC50: 17.1 µM
TGBC1TKB; Homo sapiens, TGBC1TKB
  IC50: 8.37 µM
KNS-81-FD; Homo sapiens, KNS-81-FD
  IC50: 21.2 µM
HCE-T; Homo sapiens, HCE-T
  IC50: 9.59 µM
TE-6; Homo sapiens, TE-6
  IC50: 19.2 µM
LB771-HNC; Homo sapiens, LB771-HNC
  IC50: 2.24 µM
LS-1034; Homo sapiens, LS-1034
  IC50: 5.55 µM
ETK-1; Homo sapiens, ETK-1
  IC50: 6.35 µM
EW-13; Homo sapiens, EW-13
  IC50: 6.04 µM
SCH; Homo sapiens, SCH
  IC50: 20.5 µM
CAS-1; Homo sapiens, CAS-1
  IC50: 8.88 µM

Source: ChEMBL document CHEMBL1201861, “Genomics of Drug Sensitity in Cancer screening data, Wellcome Trust Sanger Institute”
